One block for each compound: values may come before it.
Columns and labels:
[1] = target: T1, O114933_C98 (Homo sapiens, UniProt O14933); assay: Competitive isoTOP-ABPP, cell lysates; format: binding; details: 500 μm
[2] = target: T2, CASP2 C370 (P42575) (Homo sapiens, UniProt P42575); assay: Competitive isoTOP-ABPP, cell lysates; format: binding; details: for isoTOP-ABPP reactivity ratio, P42575_C370: 500 μm, in-vitro_ramos
T2 sequence (P42575 1-452): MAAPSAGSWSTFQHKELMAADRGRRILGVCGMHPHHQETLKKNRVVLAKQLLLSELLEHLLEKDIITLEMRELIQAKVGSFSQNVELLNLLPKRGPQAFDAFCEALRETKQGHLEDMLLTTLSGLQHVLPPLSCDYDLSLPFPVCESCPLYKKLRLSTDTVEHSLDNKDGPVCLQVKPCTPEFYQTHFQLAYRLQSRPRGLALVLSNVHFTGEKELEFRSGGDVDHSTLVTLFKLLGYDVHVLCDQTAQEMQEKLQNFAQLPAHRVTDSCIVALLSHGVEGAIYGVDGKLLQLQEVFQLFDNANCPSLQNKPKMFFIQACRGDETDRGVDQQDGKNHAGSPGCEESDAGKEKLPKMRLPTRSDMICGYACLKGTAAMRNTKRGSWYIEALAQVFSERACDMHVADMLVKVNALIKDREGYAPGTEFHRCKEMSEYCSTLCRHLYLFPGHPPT

[3] = target: T3, UBA7 C599 (P41226) (Homo sapiens, UniProt P41226); assay: Competitive isoTOP-ABPP, cell lysates; format: binding
T3 sequence (P41226 1-1012): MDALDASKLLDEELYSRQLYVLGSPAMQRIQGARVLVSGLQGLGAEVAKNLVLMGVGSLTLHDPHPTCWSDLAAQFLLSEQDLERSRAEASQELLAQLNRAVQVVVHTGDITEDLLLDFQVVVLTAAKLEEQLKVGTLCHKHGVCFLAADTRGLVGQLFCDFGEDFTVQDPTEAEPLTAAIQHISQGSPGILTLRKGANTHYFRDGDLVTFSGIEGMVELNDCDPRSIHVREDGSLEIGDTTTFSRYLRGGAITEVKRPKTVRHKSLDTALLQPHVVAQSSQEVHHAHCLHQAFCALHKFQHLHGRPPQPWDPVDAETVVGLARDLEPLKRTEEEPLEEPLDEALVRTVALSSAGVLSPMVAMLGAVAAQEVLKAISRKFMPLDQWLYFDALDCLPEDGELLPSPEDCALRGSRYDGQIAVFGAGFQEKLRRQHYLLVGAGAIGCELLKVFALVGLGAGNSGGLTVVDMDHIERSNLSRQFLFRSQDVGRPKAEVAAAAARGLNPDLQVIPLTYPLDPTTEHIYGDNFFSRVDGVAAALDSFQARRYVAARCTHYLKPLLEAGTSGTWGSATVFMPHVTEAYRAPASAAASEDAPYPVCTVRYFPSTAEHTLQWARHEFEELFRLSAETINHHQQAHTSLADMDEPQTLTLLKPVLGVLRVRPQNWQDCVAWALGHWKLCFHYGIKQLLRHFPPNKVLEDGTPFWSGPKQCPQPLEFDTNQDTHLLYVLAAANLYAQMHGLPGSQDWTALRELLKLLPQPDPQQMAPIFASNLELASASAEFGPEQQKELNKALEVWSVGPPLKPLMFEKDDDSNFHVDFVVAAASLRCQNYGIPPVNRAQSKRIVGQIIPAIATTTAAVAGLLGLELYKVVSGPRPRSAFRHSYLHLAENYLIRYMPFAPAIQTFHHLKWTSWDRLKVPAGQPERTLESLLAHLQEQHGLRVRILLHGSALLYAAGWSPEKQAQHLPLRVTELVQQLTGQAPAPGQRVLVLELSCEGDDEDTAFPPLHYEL

[4] = target: O14933 C98 (Homo sapiens, UniProt O14933); assay: Competitive isoTOP-ABPP, cell lysates; format: binding; details: 500 μM, invitro, ramos
Chain of O14933 C98 (O14933 whole entry, one chain of several): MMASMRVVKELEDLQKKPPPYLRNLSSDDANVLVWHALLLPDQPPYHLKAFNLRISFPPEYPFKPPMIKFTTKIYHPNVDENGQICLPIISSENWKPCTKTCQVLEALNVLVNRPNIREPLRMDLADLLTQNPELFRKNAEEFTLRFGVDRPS

[5] = target: T1, O114933_C98; assay: Competitive isoTOP-ABPP, cell lysates; format: binding
[6] = target: cysteines in MDA-MB-231 and Ramos cells (Homo sapiens, UniProt P46013); assay: Competitive isoTOP-ABPP in situ (fragment-treated cells); format: cell-based; details: 200 μM, insitu
Chain of cysteines in MDA-MB-231 and Ramos cells (P46013 whole entry, the tested form may be a part): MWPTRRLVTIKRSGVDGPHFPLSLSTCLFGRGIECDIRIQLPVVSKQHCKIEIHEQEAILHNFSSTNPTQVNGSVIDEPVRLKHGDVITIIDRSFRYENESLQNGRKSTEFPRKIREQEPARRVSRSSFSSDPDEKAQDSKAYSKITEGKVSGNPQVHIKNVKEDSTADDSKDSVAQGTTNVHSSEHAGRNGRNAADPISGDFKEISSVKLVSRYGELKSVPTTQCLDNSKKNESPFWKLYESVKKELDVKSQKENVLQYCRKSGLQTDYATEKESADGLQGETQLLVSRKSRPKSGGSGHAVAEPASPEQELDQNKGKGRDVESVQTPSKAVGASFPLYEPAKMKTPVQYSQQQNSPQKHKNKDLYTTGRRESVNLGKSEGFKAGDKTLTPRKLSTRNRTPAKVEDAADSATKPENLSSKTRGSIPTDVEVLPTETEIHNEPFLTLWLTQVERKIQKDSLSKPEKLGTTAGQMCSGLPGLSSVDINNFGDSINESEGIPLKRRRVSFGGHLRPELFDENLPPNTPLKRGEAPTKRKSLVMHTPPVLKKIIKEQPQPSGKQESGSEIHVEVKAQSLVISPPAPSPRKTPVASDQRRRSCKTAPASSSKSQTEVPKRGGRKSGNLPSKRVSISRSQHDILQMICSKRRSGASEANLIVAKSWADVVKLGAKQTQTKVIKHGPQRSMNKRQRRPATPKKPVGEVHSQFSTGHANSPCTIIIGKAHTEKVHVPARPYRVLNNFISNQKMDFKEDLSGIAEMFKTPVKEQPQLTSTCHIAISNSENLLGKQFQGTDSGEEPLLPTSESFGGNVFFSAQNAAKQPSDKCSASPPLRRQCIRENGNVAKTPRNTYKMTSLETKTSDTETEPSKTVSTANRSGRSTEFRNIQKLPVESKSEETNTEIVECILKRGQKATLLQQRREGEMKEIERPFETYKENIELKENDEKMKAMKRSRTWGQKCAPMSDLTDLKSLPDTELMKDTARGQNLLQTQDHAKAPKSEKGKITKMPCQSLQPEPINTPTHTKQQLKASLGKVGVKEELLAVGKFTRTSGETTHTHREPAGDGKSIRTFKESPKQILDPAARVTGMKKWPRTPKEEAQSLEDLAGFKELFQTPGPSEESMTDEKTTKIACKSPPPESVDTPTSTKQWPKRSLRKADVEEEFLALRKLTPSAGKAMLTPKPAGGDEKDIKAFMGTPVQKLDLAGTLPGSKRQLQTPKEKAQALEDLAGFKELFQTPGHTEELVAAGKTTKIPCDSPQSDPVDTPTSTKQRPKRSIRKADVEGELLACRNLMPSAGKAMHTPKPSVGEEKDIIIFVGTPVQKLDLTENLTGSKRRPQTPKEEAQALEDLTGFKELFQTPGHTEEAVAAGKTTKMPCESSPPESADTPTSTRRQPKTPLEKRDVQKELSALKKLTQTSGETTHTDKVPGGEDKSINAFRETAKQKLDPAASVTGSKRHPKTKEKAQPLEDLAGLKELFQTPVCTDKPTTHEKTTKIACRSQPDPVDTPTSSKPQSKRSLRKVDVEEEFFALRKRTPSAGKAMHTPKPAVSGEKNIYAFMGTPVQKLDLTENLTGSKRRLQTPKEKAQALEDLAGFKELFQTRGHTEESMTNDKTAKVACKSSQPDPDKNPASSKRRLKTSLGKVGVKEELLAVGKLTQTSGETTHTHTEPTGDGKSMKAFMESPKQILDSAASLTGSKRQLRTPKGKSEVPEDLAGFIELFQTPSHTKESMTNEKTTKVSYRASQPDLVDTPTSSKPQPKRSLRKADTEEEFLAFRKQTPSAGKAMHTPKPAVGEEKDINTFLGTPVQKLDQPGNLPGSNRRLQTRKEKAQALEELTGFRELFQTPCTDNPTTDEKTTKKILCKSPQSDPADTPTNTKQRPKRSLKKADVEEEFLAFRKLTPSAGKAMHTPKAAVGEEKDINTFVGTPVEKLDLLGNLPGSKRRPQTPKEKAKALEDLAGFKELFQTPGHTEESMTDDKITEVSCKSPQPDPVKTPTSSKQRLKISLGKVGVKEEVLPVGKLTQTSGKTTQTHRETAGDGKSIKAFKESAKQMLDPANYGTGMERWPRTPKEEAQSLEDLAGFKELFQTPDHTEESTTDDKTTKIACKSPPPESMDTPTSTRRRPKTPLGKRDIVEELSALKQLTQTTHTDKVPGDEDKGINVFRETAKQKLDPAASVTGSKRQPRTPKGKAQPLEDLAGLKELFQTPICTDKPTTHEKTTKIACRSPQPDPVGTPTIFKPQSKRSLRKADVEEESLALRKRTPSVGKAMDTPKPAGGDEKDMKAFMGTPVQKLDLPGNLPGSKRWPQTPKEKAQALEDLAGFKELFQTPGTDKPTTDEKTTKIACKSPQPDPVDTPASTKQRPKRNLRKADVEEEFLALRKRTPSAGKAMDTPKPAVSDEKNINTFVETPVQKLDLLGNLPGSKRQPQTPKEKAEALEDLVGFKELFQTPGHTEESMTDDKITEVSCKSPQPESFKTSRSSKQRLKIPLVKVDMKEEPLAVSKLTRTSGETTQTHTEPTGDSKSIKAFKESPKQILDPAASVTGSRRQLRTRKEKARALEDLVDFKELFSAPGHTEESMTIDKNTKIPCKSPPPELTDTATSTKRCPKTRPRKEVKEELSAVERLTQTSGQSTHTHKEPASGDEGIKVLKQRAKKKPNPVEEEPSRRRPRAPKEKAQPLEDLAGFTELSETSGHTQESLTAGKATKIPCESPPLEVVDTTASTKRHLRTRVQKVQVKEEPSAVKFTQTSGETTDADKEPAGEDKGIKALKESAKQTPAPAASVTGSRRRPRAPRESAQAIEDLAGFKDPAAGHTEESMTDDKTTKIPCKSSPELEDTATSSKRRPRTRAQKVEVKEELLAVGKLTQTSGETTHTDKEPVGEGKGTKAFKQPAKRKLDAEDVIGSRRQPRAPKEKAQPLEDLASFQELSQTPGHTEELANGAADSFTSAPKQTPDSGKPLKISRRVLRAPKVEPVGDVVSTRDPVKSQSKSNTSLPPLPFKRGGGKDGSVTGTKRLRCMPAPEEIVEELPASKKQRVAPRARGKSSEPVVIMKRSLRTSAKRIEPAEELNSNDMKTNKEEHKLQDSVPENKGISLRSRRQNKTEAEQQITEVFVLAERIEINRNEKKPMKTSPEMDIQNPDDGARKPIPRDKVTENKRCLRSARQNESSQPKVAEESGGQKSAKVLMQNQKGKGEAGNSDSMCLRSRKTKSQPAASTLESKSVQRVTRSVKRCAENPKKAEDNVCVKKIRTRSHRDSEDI

T1 sequence (O14933 whole entry): as the sequence (O14933 whole entry, one chain of several) above

Compound: O=C(CCl)NC1C(O)OC(CO)C(O)C1O (mixture of isomers) [compound 44]
isoTOP-ABPP reactivity profile ratio, O114933_C98 ([1]; in-vitro_ramos_231): 2.0

Compound: O=C(CCl)Nc1cc(C(F)(F)F)cc(C(F)(F)F)c1 [compound 3]
R value (DMSO/fragment) ([2]; 500 μM, invitro, ramos): 7.4

Compound: COc1ccc(C2CC(c3cccs3)=NN2C(=O)CCl)cc1 (stereo not shown) [compound 4]
R value (DMSO/fragment) ([3]; 250 μM, in vitro, Ramos): 20.0

Compound: Cn1cc(S(=O)(=O)N2CCOCC2)cc1C(=O)NC(=O)CCl [compound 11]
isoTOP-ABPP ratio, P42575_C370 ([2]; 500 μM, invitro, ramos): 6.0
isoTOP-ABPP ratio, P41226_C599 ([3]; 500 μM, invitro, ramos): 1.9
isoTOP-ABPP ratio O14933_C98 [4]: 3.4

Compound: O=C(CCl)NC(=O)NC12CC3CC(CC(C3)C1)C2 [compound 12]
isoTOP-ABPP ratio O14933_C98 [4]: 1.3

Compound: O=C(CCl)N1CCC(C(O)(c2ccccc2)c2ccccc2)CC1 [compound 20]
isoTOP-ABPP ratio (reactivity profile), P41226_C599 ([3]; 500 μm in-vitro ramos): 12.2
isoTOP-ABPP ratio (reactivity profile), P41226_C599 ([3]; 500 μm in-vitro ramos_231): 1.1
isoTOP-ABPP ratio (reactivity profile), O114933_C98 ([5]; 500 μm in-vitro ramos): 3.9

Compound: O=C(CCl)N1CCOCC1 [compound 22]
isoTOP-ABPP ratio (reactivity profile), O114933_C98 ([5]; 500 μm in-vitro ramos): 2.0

Compound: N#C/C(=C\c1cc(C(F)(F)F)cc(C(F)(F)F)c1)C(N)=O [compound 23]
isoTOP-ABPP ratio (reactivity profile), P42575_C370 ([2]; 500 μm in-vitro ramos): 2.1
isoTOP-ABPP ratio (reactivity profile), P41226_C599 ([3]; 500 μm in-vitro ramos): 3.2
isoTOP-ABPP ratio (reactivity profile), O114933_C98 ([5]; 500 μm in-vitro ramos): 1.2
isoTOP-ABPP ratio (reactivity profile), O114933_C98 ([5]; 500 μm in-vitro ramos_231): 0.7

Compound: CC(Br)C(=O)Nc1cc(C(F)(F)F)cc(C(F)(F)F)c1 (stereo not shown) [compound 24]
isoTOP-ABPP ratio (reactivity profile), P42575_C370 ([2]; 500 μm in-vitro ramos): 2.2

Compound: CC(C)CCOCCNC(=O)CCl [compound 27]
isoTOP-ABPP ratio (reactivity profile), P42575_C370 ([2]; 500 μm in-vitro ramos_231): 0.9
isoTOP-ABPP ratio (reactivity profile), P41226_C599 ([3]; 500 μm in-vitro ramos): 1.3
isoTOP-ABPP ratio (reactivity profile), P41226_C599 ([3]; 500 μm in-vitro ramos_231): 0.7
isoTOP-ABPP ratio (reactivity profile), O114933_C98 ([5]; 500 μm in-vitro ramos): 1.0
isoTOP-ABPP ratio (reactivity profile), O114933_C98 ([5]; 500 μm in-vitro ramos_231): 1.2

Compound: COc1ccccc1OCCNC(=O)CCl [compound 28]
isoTOP-ABPP ratio (reactivity profile), O114933_C98 ([5]; 500 μm in-vitro ramos): 1.2

Compound: CCN(CC)c1ccc(S(N)(=O)=O)cc1NC(=O)CCl [compound 30]
isoTOP-ABPP reactivity ratio, P42575_C370 [2]: 4.1
isoTOP-ABPP ratio (reactivity profile), O114933_C98 ([5]; 500 μm in-vitro ramos): 1.3

Compound: O=C(CCl)Nc1ccccc1C1CCCCCC1 [compound 35]
isoTOP-ABPP reactivity ratio, P41226_C599 ([3]; 500 μm, in-vitro_ramos): 1.2

Compound: CC1CCc2ccccc2N1C(=O)CCl (stereo not shown) [compound 45]
isoTOP-ABPP ratio P46013_C903 [6]; 231: 20.0

Compound: O=C(CCl)N1CCc2cc(Br)ccc21 [compound 50]
isoTOP-ABPP reactivity profile ratio, O114933_C98 ([1]; in-vitro_ramos_231): 1.5

Compound: O=C(CCl)Nc1cccc2ncccc12 [compound 51]
isoTOP-ABPP ratio P46013_C903 [6]; 231: 1.1

Compound: O=C(CCl)Nc1ccc(-c2ccccc2)cc1 [compound 52]
isoTOP-ABPP reactivity profile ratio, O114933_C98 ([1]; in-vitro_ramos): 1.4
isoTOP-ABPP reactivity profile ratio, O114933_C98 ([1]; in-vitro_ramos_231): 1.4

Second part, the compound after the results:

isoTOP-ABPP ratio, P42575_C370 ([2]; 500 μM, invitro, ramos): 1.2
Compound: O=C(CCl)N1CCN(S(=O)(=O)c2ccccc2F)CC1 [compound 10]

isoTOP-ABPP ratio O14933_C98 [4]: 1.0
Compound: O=C(CCl)NCCc1c[nH]c2ccccc12 [compound 13]

isoTOP-ABPP ratio (reactivity profile), O114933_C98 ([5]; 500 μm in-vitro ramos): 1.3
Compound: C=CC(=O)N(Cc1cccnc1)c1ccc(Oc2ccccc2)c(C(F)(F)F)c1 [compound 15]

isoTOP-ABPP ratio (reactivity profile), P41226_C599 ([3]; 500 μm in-vitro ramos): 2.5
Compound: O=C(CCl)NC12CC3CC(CC(C3)C1)C2 [compound 21]

isoTOP-ABPP ratio (reactivity profile), O114933_C98 ([5]; 500 μm in-vitro ramos): 1.0
Compound: O=C(/C=C/c1ccccc1)Nc1cc(C(F)(F)F)cc(C(F)(F)F)c1 [compound 26]

isoTOP-ABPP ratio P46013_C903 ([6]; ramos): 1.6
Compound: O=C(CCl)N1CCN(CC(=O)N2CCOCC2)CC1 [compound 29]

isoTOP-ABPP reactivity ratio, P42575_C370 [2]: 0.7
Compound: C=CC(=O)N1CCC(c2noc3ccc(F)cc23)CC1 [compound 37]

isoTOP-ABPP ratio P46013_C903 [6]; 231: 1.1
Compound: C=CC(=O)Nc1cc(F)c(N2CCN(C(=O)OC(C)(C)C)CC2)c(F)c1 [compound 38]

isoTOP-ABPP reactivity ratio, P42575_C370 [2]: 2.7
Compound: C=CC(=O)Nc1cc(C)c(Br)cc1C [compound 40]

isoTOP-ABPP ratio P46013_C903 [6]; 231: 1.0
isoTOP-ABPP reactivity ratio, P42575_C370 [2]: 1.4
Compound: Cc1ccc(C=C(C#N)C(=O)NCCN2CCOCC2)cc1 [compound 41]

isoTOP-ABPP reactivity profile ratio, O114933_C98 ([1]; in-vitro_ramos): 1.0
Compound: N#CC(=Cc1ccc(-c2ccccc2Cl)o1)C(N)=O [compound 42]

isoTOP-ABPP reactivity profile ratio, O114933_C98 ([1]; in-vitro_ramos): 1.0
Compound: C=CC(=O)N1CCC(Cc2ccccc2)CC1 [compound 53]

From patent publication US10670605B2, “Cysteine reactive probes and uses thereof” (The Scripps Research Institute, priority 2015, dated 2020)
